Source: the supplement of paper PMC3974653
Where a name gives a salt, the structure may show the parent alone.

Tested on: MTT (mouse pheochromocytoma)
Experiment: IC50 of cell viability (ATP content)
Conditions: (24 or 48 h)
Method in brief: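 CellTiter-Glo ATP luminescence, read after 15 minutes, was used to assess MTT mouse pheochromocytoma cells treated for 24 or 48 hrs with library compounds (final 0.5 nM to 46 µM, 8 concentrations). The cells had been plated at 5 µl of 200,000 cells/ml per well in white 1536-well plates in DMEM with 5% FBS and 1% horse serum and cultured overnight at 37°C, 5% CO2. Normalisation set positive-control wells to 100% and DMSO wells to 0%. The IC50 was then determined by four-parameter logistic fitting.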

IC50 of cell viability [µM] | Structure (SMILES)
> 46 | Cl.Nc1cc(Cl)c(N=C2NCCN2)c(Cl)c1 [p-Aminoclonidine hydrochloride]
> 46 | CN1c2ccccc2C(NCCCCCCC(=O)[O][Na])c2ccc(Cl)cc2[S+]1(=O)[O-] (stereo not given) [TIANEPTINUM]
> 46 | CCOC(=O)COc1ccc2c(C)c(CC[NH+](CC)CC)c(=O)oc2c1 [Chromonar hydrochloride]
> 46 | NC(CCC(=O)N[C@@H](CS)C(=O)NCC(=O)O)C(=O)O (stereo not given in full) [GLUTATHIONE]
> 46 | O=C(O)CCn1c2c(c3ccccc31)C[C@H](N[S+](=O)([O-])c1ccc(F)cc1)CC2 [RAMATROBAN]
> 46 | Nc1c(/N=N/c2ccc(-c3ccc(/N=N/c4cc(S(=O)(=O)[O-])c5ccccc5c4N)cc3)cc2)cc(S(=O)(=O)[O-])c2ccccc12 [CI DIRECT RED 28]
> 46 | COC(=O)C(Cc1ccccc1)NC(=O)C(N)CC(=O)O (stereo not given) [ASPARTAME]
> 46 | CC1CN(c2c(F)c(N)c3c(=O)c(C(=O)O)cn(C4CC4)c3c2F)CC(C)N1 (stereo not given) [SPARFLOXACIN]
> 46 | O=C([O-])Cc1ccccc1Nc1c(Cl)cccc1Cl.[Na+] [DICLOFENAC SODIUM]
> 46 | COc1ccccc1N1CCN(CCCCNC(=O)c2ccc(-c3ccc(C(C)=O)cc3)cc2)CC1
> 46 | COC(=O)[C@H]1[C@H]2C[C@@H]3c4[nH]c5cc(OC)ccc5c4CCN3C[C@H]2C[C@@H](OC(=O)c2cc(OC)c(OC)c(OC)c2)[C@@H]1OC [Reserpine]
> 46 | CNCCCCOc1ccccc1Cc1ccccc1 [Bifemelane]
> 46 | C=CCc1ccc(O)c(OC)c1 [Eugenol]
> 46 | O=C1CCc2cc(OCCCCc3nnnn3C3CCCCC3)ccc2N1 [CILOSTAZOL]
> 46 | O=C(/C=C/c1ccccc1)OCc1ccccc1 [BENZYL CINNAMATE]
> 46 | CCN(CC)CCOCCOC(=O)C1(c2ccccc2)CCCC1 [CARBETAPENTANE]
> 46 | Cc1onc(-c2c(F)cccc2Cl)c1C(=O)NC1C(=O)N2C1SC(C)(C)C2C(=O)[O-].O.[Na+] (stereo not given) [FLUCLOXACILLIN MAGNESIUM]
> 46 | CC1=NN(c2ccccc2)C(=O)C1 [1-Phenyl-3-methyl-5-pyrazolone]
> 46 | CC(=O)SC[C@@H](C)C(=O)N1CCC[C@H]1C(=O)N[C@@H](Cc1ccccc1)C(=O)O [ALACEPRIL]

IC50 of cell viability [µM] | Structure (SMILES)
> 46 | CCCc1nc(C)c2c(=O)nc(-c3cc([S+](=O)([O-])N4CCN(CC)CC4)ccc3OCC)[nH]n12 [VARDENAFIL HYDROCHLORIDE]
> 46 | CCCCN1CCCC1C(=O)Nc1c(C)cc(C)cc1C (stereo not given) [BUMECAINUM]
> 46 | CCCCCCCCCC(CC)c1ccc([S+](=O)([O-])O)cc1 (stereo not given) [4-Dodecylbenzenesulfonic acid]
> 46 | CC(C)CCOC(=O)c1ccc(N(C)C)cc1 [Padimato]
> 46 | O=C(O)CC(O)(CC(=O)O)C(=O)O [Citric acid]
> 46 | CCCOC(C(=O)OC1CCN(C)CC1)(c1ccccc1)c1ccccc1 [PROPIVERINE HYDROCHLORIDE]
> 46 | N[C@@H](C(=O)N[C@H]1[C@H]2SC\C(=C(/N2C1=O)C(O)=O)CSC3=C[NH]N=N3)C4=CC=C(O)C=C4 [CEFATRIZINE]
> 46 | CC(C)CN(C[C@@H](O)[C@H](Cc1ccccc1)NC(=O)O[C@H]1CCOC1)[S+](=O)([O-])c1ccc(N)cc1 [Amprenavir]
> 46 | Cn1c(NCCN(CCO)CCCc2ccc([N+](=O)[O-])cc2)cc(=O)n(C)c1=O [Nifekalant]
> 46 | O=C(O)CC/C=C\CC[C@@H]1[C@@H](N2CCCCC2)[C@@H](O)C[C@@H]1OCc1ccc(-c2ccccc2)cc1 [VAPIPROST HYDROCHLORIDE]
> 46 | Cc1ccc(C)c(OCCCC(C)(C)C(=O)O)c1 [Gemfibrozil]
> 46 | CC1CCCCN1CCCOC(=O)c1ccccc1 (stereo not given) [PIPEROCAINE HYDROCHLORIDE]
> 46 | CCCC[C@H](O)c1ccccc1 [FENIPENTOL]
> 46 | CO[C@@]1(NC(=O)[C@@H]2S\C(S2)=C(\C(N)=O)C(O)=O)[C@@H]3SC\C(=C(/N3C1=O)C(O)=O)CSC4=NN=N[N]4C (stereo not given in full) [Cefotetan]
> 46 | COC1=C(OC)C2=C(CC[C@@H](NC(C)=O)C/3=C/C(=O)/C(=C/C=C23)SC)C=C1O[C@@H]4O[C@@H](CO)[C@@H](O)[C@@H](O)[C@H]4O [Thiocolchicoside]
> 46 | NC(CSCC(=O)O)C(=O)O (stereo not given) [CARBOCISTEINE]
> 46 | C[C@@]12CC(O)C3C(CCC/4=C/C(=O)/C=C\[C@]34C)C1CC[C@]2(O)C(=O)CO (stereo not given in full) [PREDNISOLONE]
> 46 | CO/N=C(/C(=O)N[C@@H]1C(=O)N2C(C(=O)O)=C(CSC(=O)c3ccco3)CSC12)c1csc(N)n1 (stereo not given in full) [CEFTIOFUR CRYSTALLINE FREE ACID]
> 46 | CC(N)C(=O)NCC(=O)NC1CSSCC(C(=O)O)NC(=O)C(CO)NC(=O)C(C(C)O)NC(=O)C(Cc2ccccc2)NC(=O)C(C(C)O)NC(=O)C(CCCCN)NC(=O)C(Cc2c[nH]c3ccccc23)NC(=O)C(Cc2ccccc2)NC(=O)C(Cc2ccccc2)NC(=O)C(CC(N)=O)NC(=O)C(CCCCN)NC1=O (stereo not given) [SOMATOSTATIN]

IC50 of cell viability [µM] | Structure (SMILES)
> 46 | N=C(N)n1cccn1 [PRAXADINUM]
> 46 | N[S+](=O)([O-])c1cc(C(=O)O)cc(N2CCCC2)c1Oc1ccccc1 [Piretanide]
> 46 | C#CCN(C)Cc1ccccc1 [Pargyline hydrochloride]
> 46 | Cc1onc(-c2c(Cl)cccc2Cl)c1C(=O)N[C@@H]1C(=O)N2[C@@H]1SC(C)(C)[C@@H]2C(=O)[O-] [Dicloxacillin sodium salt monohydrate]
> 46 | CN(C(=O)C(Cl)Cl)c1ccc(OC(=O)c2ccco2)cc1 [Diloxanide furoate]
> 46 | O=C(O)c1cc(-c2ccccc2)nc2ccccc12 [CINCHOPHENUM]
> 46 | CCCCC(CC)COC(=O)C(C#N)=C(c1ccccc1)c1ccccc1 (stereo not given) [Octocrylene]
> 46 | Clc1cccc(C(c2ccc3nc[nH]c3c2)n2ccnc2)c1 (stereo not given) [LIAROZOLE]
> 46 | CC(=O)c1ccc(OCC(=O)N2CCCCC2)cc1 [Ethanone, 2-(4-acetylphenoxy)-1-(1-piperidinyl)-]
> 46 | CCOC(=O)C(C)(C)Oc1ccc(Cl)cc1 [Clofibrate]
> 46 | OB(O)O [Boric acid]
> 46 | CC(=O)Nc1cccc(O)c1 [METACETAMOL]
> 46 | Cc1ccccc1OCC(O)CNCCOc1ccc(C(N)=O)cc1 (stereo not given) [TOLAMOLOLUM]
> 46 | OC1C(O)C(O)C(O)C(O)C1O (stereo not given) [INOSITOL]
> 46 | C[C@H](N)[C@H](O)c1cccc(O)c1.O=C(O)[C@@H](O)[C@@H](O)C(=O)O.O=C(O)[C@@H](O)[C@@H](O)C(=O)O [Metaraminol bitartrate]
> 46 | O=C(O)CC(O)C(=O)O.[NaH] (stereo not given) [MALIC ACID]
> 46 | O=C(CS)Nc1ccccc1 [Thioglycolic acid anilide]
> 46 | C[N+](C)(C)CC(=O)O [Betaine hydrochloride]

Structure (SMILES) | IC50 of cell viability [µM]
c1ccc2c(c1)sc1ccccc12 [DIBENZOTHIOPHENE] | > 46
CCNC[C@H](O)c1cccc(O)c1 [Etilefrine hydrochloride] | > 46
C[N+]1(CCC(C(N)=O)(c2ccccc2)c2ccccc2)CCCCC1 [FENPIVERINII BROMIDUM] | > 46
CC(C)(C)C(O)C(Oc1ccc(Cl)cc1)n1cncn1 (stereo not given) [Triadimenol] | > 46
CCCCCC(O)C1C(=O)OC(C)C(O)C=CC=CC=CC=CC=C(C)C(O)C(O)C(O)CC(O)CC(O)CC(O)CC(O)CC1O (stereo not given) [Fungichromin] | > 46
COc1ccc2c(c1OC)C(=O)O[C@H]2[C@@H]1c2cc3c(cc2CCN1C)OCO3 [(1S,9R)-beta-HYDRASTINE] | > 46
O=c1c2ccccc2[se]n1-c1ccccc1 [Ebselen] | > 46
COC(=O)[C@@H](N)CCCNC(=N)N[N+](=O)[O-] [N-NITRO-ARGININE METHYL ESTER] | > 46
CCCCC1C(=O)NC(=O)N(C2CCCCC2)C1=O (stereo not given) [BUCOLOME] | > 46
CCC(C)(S(=O)(=O)CC)S(=O)(=O)CC [SULFONETHYLMETHANE] | > 46
c1cc2ccc3cccc4ccc(c1)c2c34 [PYRENE] | > 46
C1CCc2nnnn2CC1 [PENTYLENETETRAZOLE] | > 46
CCCCOCCOCCOCc1cc2c(cc1CCC)OCO2 [Piperonyl butoxide] | > 46
CN(C)CCc1c[nH]c2ccccc12 [N,N-Dimethyltryptamine] | > 46
